Results from US20240252508A1, “Novel glucose uptake inhibitors for use in the treatment of cancer” (NOVELYEAST BV, priority 2021, published 2024).

Assays:
[1] = system: A549 lung adenocarcinoma cells; experiment: A549 cell proliferation / growth inhibition; format: cell-based, human; conditions: for Selected from primary screen for growth inhibition of A549 cells at 50 μM: 50 μM compound, 1 mM glucose; for Selected for having an IC50 ratio (10 mM glucose: 1 mM glucose) of A549 growth higher than WBC-A: IC50 on 10 mM vs 1 mM glucose, compared with WBC-A
Protocol: The analog library (n=203) was screened for inhibition of growth of A549 cells on RPMI medium supplemented with 1 mM glucose. DMSO (green bar) and WBC-A (orange bar) served as negative and positive control, respectively. In addition, the reference glucose transport inhibitors STF-31, Fasentin, BAY-876, WZB-117 and Cytochalasin B were included and indicated in red. Compounds were added at 50 μM concentration. Number of cells was determined by counting nuclei stained by Hoechst after three days of growth.
For both adherent A549 and MCF10Δ H-RAS^V12 cell lines, growth curves were established using the IncuCyte® ZOOM technology. By collecting phase contrast images, the IncuCyte® software provides a calculated confluency percentage from which growth curves can be deducted.
Cells were seeded at a density of 1000-1500 cells/well in a Nunc-Edge™ 96-well plate (Thermo Fisher Scientific) and growth was typically measured over 3 to 5 days. For the measurement of apoptosis induction using the MCF10Δ H-RAS^V12 cell line, the IncuCyte® Caspase-3/7 green dye was added to the medium in the recommended concentration at the beginning of the growth curve experiment. Apoptosis was detected by taking fluorescent images by excitation at 488 nm followed by IncuCyte® software analysis. Cell growth of the KMS-12-PE multiple myeloma cell line, which grows in suspension, was measured by manual cell counting. Cells were initially seeded at a density of 10^4 cells/well and incubated for 4 days after which the cell number was counted. For all cell lines, the same medium used for pregrowth was also used for the growth curve experiment, albeit with different glucose concentrations depending on the experimental design. With compound administration, the final concentration of DMSO never exceeded 0.1%. Typically, at least four technical repeats were included per condition.

tps1Δ cells = experiment: Growth rescue of tps1Δ strain on glucose (growth curves, 2% galactose medium); format: cell-based, S. cerevisiae; conditions: 100 μM compound, 2.5 mM glucose
Protocol: Growth curves were made by measuring OD595 in a 96-well plate using the Multiskan™ FC Microplate Photometer (Thermo Fisher Scientific). Typically, for tps1Δ rescue experiments (FIG. 2b-e; FIG. 4a), cells were (pre)grown in Complete Synthetic medium containing 2% galactose.
Compounds were always added 10 min prior to glucose addition to ensure maximal interaction between the cells and compounds. Cells originating from the preculture were harvested, washed in medium without sugar, after which they were resuspended to an OD of 0.1 in 200 μL of the appropriate medium. At least three technical replicates were included per condition. OD595 was measured at 30° C. every 30 min with a 10-min shaking interval.

SMILES: Cc1nc(SCC(=O)N(C)Cc2ccco2)c2c(-c3cccs3)csc2n1 [27B]
- Selected from primary screen for growth inhibition of A549 cells at 50 μM [1]: No
- Rescue of the tps1Δ strain on 2.5 mM glucose at 100 μM (tps1Δ cells): No

SMILES: COC(=O)CSc1nc(C)nc2scc(-c3cccs3)c12 [53A]
- Selected from primary screen for growth inhibition of A549 cells at 50 μM [1]: No
- Rescue of the tps1Δ strain on 2.5 mM glucose at 100 μM (tps1Δ cells): Yes

SMILES: Cc1nc(Sc2nnc3n2CCCCC3)c2c3c(sc2n1)CCC3 [63A]
- Selected from primary screen for growth inhibition of A549 cells at 50 μM [1]: No
- Rescue of the tps1Δ strain on 2.5 mM glucose at 100 μM (tps1Δ cells): No

SMILES: Cc1sc2nc(CN3CCC(C)CC3)nc(Sc3nnc(C4CC4)n3CCC(N)=O)c2c1C [17A]
- Selected from primary screen for growth inhibition of A549 cells at 50 μM [1]: Yes
- Selected for having an IC50 ratio (10 mM glucose: 1 mM glucose) of A549 growth higher than WBC-A [1]: Lower IC50 ratio
- Rescue of the tps1Δ strain on 2.5 mM glucose at 100 μM (tps1Δ cells): No

SMILES: Cc1nc(SCCC(N)=O)c2c(-c3cccs3)csc2n1 [4B]
- Selected from primary screen for growth inhibition of A549 cells at 50 μM [1]: No
- Rescue of the tps1Δ strain on 2.5 mM glucose at 100 μM (tps1Δ cells): No

SMILES: NC(=O)CSc1ncnc2scc(-c3ccccc3)c12 [82C]
- Selected from primary screen for growth inhibition of A549 cells at 50 μM [1]: No
- Rescue of the tps1Δ strain on 2.5 mM glucose at 100 μM (tps1Δ cells): No

SMILES: Cc1nc(SCC(=O)c2ccc(NC(=O)CC(C)C)cc2)c2c(-c3cccs3)csc2n1 [38B]
- Selected from primary screen for growth inhibition of A549 cells at 50 μM [1]: No
- Rescue of the tps1Δ strain on 2.5 mM glucose at 100 μM (tps1Δ cells): No

SMILES: [O-][S+](CCSc1ncnc2scc(-c3ccc(F)cc3)c12)c1ccccc1 (stereo not drawn) [45C]
- Selected from primary screen for growth inhibition of A549 cells at 50 μM [1]: Yes
- Selected for having an IC50 ratio (10 mM glucose: 1 mM glucose) of A549 growth higher than WBC-A [1]: Lower IC50 ratio
- Rescue of the tps1Δ strain on 2.5 mM glucose at 100 μM (tps1Δ cells): No

SMILES: CCc1nc(SCC(=O)OC)c2ccsc2n1 [42C]
- Selected from primary screen for growth inhibition of A549 cells at 50 μM [1]: No
- Selected for having an IC50 ratio (10 mM glucose: 1 mM glucose) of A549 growth higher than WBC-A [1]: Lower IC50 ratio
- Rescue of the tps1Δ strain on 2.5 mM glucose at 100 μM (tps1Δ cells): No

SMILES: Cc1nc(N(C)CC(=O)N2CCN(C)CC2)c2c(-c3cccs3)csc2n1 [10B]
- Selected from primary screen for growth inhibition of A549 cells at 50 μM [1]: No
- Rescue of the tps1Δ strain on 2.5 mM glucose at 100 μM (tps1Δ cells): No

SMILES: c1ccn2c(Sc3ncnc4sccc34)nnc2c1 [46A]
- Selected from primary screen for growth inhibition of A549 cells at 50 μM [1]: No
- Rescue of the tps1Δ strain on 2.5 mM glucose at 100 μM (tps1Δ cells): No

SMILES: Cc1nc(SCCC#N)c2c(-c3cccs3)csc2n1 [15A]
- Selected from primary screen for growth inhibition of A549 cells at 50 μM [1]: No
- Rescue of the tps1Δ strain on 2.5 mM glucose at 100 μM (tps1Δ cells): No

SMILES: c1ccc(-c2csc3ncnc(Sc4nnc5ccccn45)c23)cc1 [49A]
- Selected from primary screen for growth inhibition of A549 cells at 50 μM [1]: Yes
- Selected for having an IC50 ratio (10 mM glucose: 1 mM glucose) of A549 growth higher than WBC-A [1]: Lower IC50 ratio
- Rescue of the tps1Δ strain on 2.5 mM glucose at 100 μM (tps1Δ cells): No

SMILES: Cc1sc2ncnc(Sc3nnc(Cc4cccs4)n3C)c2c1C [12A]
- Selected from primary screen for growth inhibition of A549 cells at 50 μM [1]: No
- Rescue of the tps1Δ strain on 2.5 mM glucose at 100 μM (tps1Δ cells): No

SMILES: Cc1nc(NC2CCN(CC(N)=O)CC2)c2c(-c3cccs3)csc2n1 [48B]
- Selected from primary screen for growth inhibition of A549 cells at 50 μM [1]: Yes
- Selected for having an IC50 ratio (10 mM glucose: 1 mM glucose) of A549 growth higher than WBC-A [1]: Lower IC50 ratio
- Rescue of the tps1Δ strain on 2.5 mM glucose at 100 μM (tps1Δ cells): No

SMILES: Cc1nc(Sc2nnc(C3CC3)n2C2CC2)c2c(-c3cccs3)csc2n1 [58C]
- Selected from primary screen for growth inhibition of A549 cells at 50 μM [1]: No
- Rescue of the tps1Δ strain on 2.5 mM glucose at 100 μM (tps1Δ cells): No

SMILES: Cc1nc(Sc2nnc[nH]2)c2cc(-c3ccccc3)sc2n1 [59A]
- Selected from primary screen for growth inhibition of A549 cells at 50 μM [1]: No
- Rescue of the tps1Δ strain on 2.5 mM glucose at 100 μM (tps1Δ cells): No

SMILES: CCCN(CC(=O)N(C)C)c1nc(C)nc2scc(-c3cccs3)c12 [46B]
- Selected from primary screen for growth inhibition of A549 cells at 50 μM [1]: Yes
- Selected for having an IC50 ratio (10 mM glucose: 1 mM glucose) of A549 growth higher than WBC-A [1]: Lower IC50 ratio
- Rescue of the tps1Δ strain on 2.5 mM glucose at 100 μM (tps1Δ cells): No

SMILES: Cc1nc(SCCO)c2c3c(sc2n1)CCC3 [24C]
- Selected from primary screen for growth inhibition of A549 cells at 50 μM [1]: No
- Rescue of the tps1Δ strain on 2.5 mM glucose at 100 μM (tps1Δ cells): No

SMILES: Cc1sc2nc(-c3cccs3)nc(N(C)Cc3nnc4n3CCCCC4)c2c1C [36A]
- Selected from primary screen for growth inhibition of A549 cells at 50 μM [1]: No
- Rescue of the tps1Δ strain on 2.5 mM glucose at 100 μM (tps1Δ cells): No

SMILES: COC(=O)CSc1nc(CN2CCOCC2)nc2scc(-c3cccs3)c12 [37B]
- Selected from primary screen for growth inhibition of A549 cells at 50 μM [1]: No
- Rescue of the tps1Δ strain on 2.5 mM glucose at 100 μM (tps1Δ cells): No

SMILES: Cc1nc(Sc2nnnn2C2CC2)c2c(-c3cccs3)csc2n1 [44C]
- Selected from primary screen for growth inhibition of A549 cells at 50 μM [1]: Yes
- Selected for having an IC50 ratio (10 mM glucose: 1 mM glucose) of A549 growth higher than WBC-A [1]: Lower IC50 ratio
- Rescue of the tps1Δ strain on 2.5 mM glucose at 100 μM (tps1Δ cells): No

SMILES: c1nc(SCCN2CCOCC2)c2c3c(sc2n1)CCCC3 [84C]
- Selected from primary screen for growth inhibition of A549 cells at 50 μM [1]: No
- Rescue of the tps1Δ strain on 2.5 mM glucose at 100 μM (tps1Δ cells): No

SMILES: Cn1ccnc1Sc1nc(CN2CCOCC2)nc2scc(-c3cccs3)c12 [3C]
- Selected from primary screen for growth inhibition of A549 cells at 50 μM [1]: No
- Rescue of the tps1Δ strain on 2.5 mM glucose at 100 μM (tps1Δ cells): No

SMILES: CNc1nnc(Sc2nc(C)nc3scc(-c4cccs4)c23)s1 [32A]
- Selected from primary screen for growth inhibition of A549 cells at 50 μM [1]: No
- Rescue of the tps1Δ strain on 2.5 mM glucose at 100 μM (tps1Δ cells): No

SMILES: Cc1nc(N2CCN(CCO)CC2)c2c(-c3cccs3)csc2n1 [25B]
- Selected from primary screen for growth inhibition of A549 cells at 50 μM [1]: No
- Rescue of the tps1Δ strain on 2.5 mM glucose at 100 μM (tps1Δ cells): No

SMILES: CCNc1nnc(Sc2nc(C)nc3scc(-c4cccs4)c23)s1 [46C]
- Selected from primary screen for growth inhibition of A549 cells at 50 μM [1]: No
- Rescue of the tps1Δ strain on 2.5 mM glucose at 100 μM (tps1Δ cells): No

SMILES: c1cnc(Sc2nc(CN3CCOCC3)nc3scc(-c4cccs4)c23)nc1 [1C]
- Selected from primary screen for growth inhibition of A549 cells at 50 μM [1]: Yes
- Selected for having an IC50 ratio (10 mM glucose: 1 mM glucose) of A549 growth higher than WBC-A [1]: Lower IC50 ratio
- Rescue of the tps1Δ strain on 2.5 mM glucose at 100 μM (tps1Δ cells): No

SMILES: Cc1nc(NCC(=O)Nc2c(C)cccc2C)c2c(-c3cccs3)csc2n1 [29C]
- Selected from primary screen for growth inhibition of A549 cells at 50 μM [1]: No
- Rescue of the tps1Δ strain on 2.5 mM glucose at 100 μM (tps1Δ cells): No

SMILES: Cc1nc(SCC(=O)NC(=O)NCCC(C)C)c2c(-c3cccs3)csc2n1 [49B]
- Selected from primary screen for growth inhibition of A549 cells at 50 μM [1]: Yes
- Selected for having an IC50 ratio (10 mM glucose: 1 mM glucose) of A549 growth higher than WBC-A [1]: Lower IC50 ratio
- Rescue of the tps1Δ strain on 2.5 mM glucose at 100 μM (tps1Δ cells): No

SMILES: Cc1nc(SCC(=O)N2CCOCC2)c2c3c(sc2n1)CCC3 [65C]
- Selected from primary screen for growth inhibition of A549 cells at 50 μM [1]: No
- Rescue of the tps1Δ strain on 2.5 mM glucose at 100 μM (tps1Δ cells): No

SMILES: Cc1nc(SCCN2CCCS2(=O)=O)c2c(C)c(C)sc2n1 [83C]
- Selected from primary screen for growth inhibition of A549 cells at 50 μM [1]: No
- Rescue of the tps1Δ strain on 2.5 mM glucose at 100 μM (tps1Δ cells): No

SMILES: Cc1sc2nc(CN3CCOCC3)nc(Sc3nnc4n3CCCCC4)c2c1C [28A]
- Selected from primary screen for growth inhibition of A549 cells at 50 μM [1]: No
- Rescue of the tps1Δ strain on 2.5 mM glucose at 100 μM (tps1Δ cells): No

SMILES: O=C(CSc1ncnc2scc(-c3ccccc3)c12)N1CCOCC1 [60C]
- Selected from primary screen for growth inhibition of A549 cells at 50 μM [1]: No
- Rescue of the tps1Δ strain on 2.5 mM glucose at 100 μM (tps1Δ cells): No

SMILES: c1csc(-c2csc3nc(CN4CCOCC4)nc(Sc4nnc[nH]4)c23)c1 [55A]
- Selected from primary screen for growth inhibition of A549 cells at 50 μM [1]: No
- Rescue of the tps1Δ strain on 2.5 mM glucose at 100 μM (tps1Δ cells): Yes

SMILES: Nc1nc(CSc2nnc3n2CCCCC3)nc2sc3c(c12)CCCCC3 [35A]
- Selected from primary screen for growth inhibition of A549 cells at 50 μM [1]: Yes
- Selected for having an IC50 ratio (10 mM glucose: 1 mM glucose) of A549 growth higher than WBC-A [1]: Lower IC50 ratio
- Rescue of the tps1Δ strain on 2.5 mM glucose at 100 μM (tps1Δ cells): No

SMILES: COc1cccc(NC(=O)CSc2nc(C)nc3scc(-c4cccs4)c23)c1 [45B]
- Selected from primary screen for growth inhibition of A549 cells at 50 μM [1]: Yes
- Selected for having an IC50 ratio (10 mM glucose: 1 mM glucose) of A549 growth higher than WBC-A [1]: Higher IC50 ratio, but false-positive
- Rescue of the tps1Δ strain on 2.5 mM glucose at 100 μM (tps1Δ cells): No

SMILES: c1ccn2c(Sc3ncnc4sc5c(c34)CCC5)nnc2c1 [60A]
- Selected from primary screen for growth inhibition of A549 cells at 50 μM [1]: No
- Rescue of the tps1Δ strain on 2.5 mM glucose at 100 μM (tps1Δ cells): No
